Structures are written as SMILES. Calls of active or inactive are those of the source. Cut-off read from the data, not from the text of the source: actives have a measured IC50 and inactives only a lower limit. Bounds are passed on as bounds.

Experimental findings from ChEMBL document CHEMBL1201862, “PubChem BioAssay data set” (2004) are described below.

Assay [1] deals with T1, Alkaline phosphatase, tissue-nonspecific isozyme (Homo sapiens, UniProt P05186).
T1 sequence (P05186 whole entry): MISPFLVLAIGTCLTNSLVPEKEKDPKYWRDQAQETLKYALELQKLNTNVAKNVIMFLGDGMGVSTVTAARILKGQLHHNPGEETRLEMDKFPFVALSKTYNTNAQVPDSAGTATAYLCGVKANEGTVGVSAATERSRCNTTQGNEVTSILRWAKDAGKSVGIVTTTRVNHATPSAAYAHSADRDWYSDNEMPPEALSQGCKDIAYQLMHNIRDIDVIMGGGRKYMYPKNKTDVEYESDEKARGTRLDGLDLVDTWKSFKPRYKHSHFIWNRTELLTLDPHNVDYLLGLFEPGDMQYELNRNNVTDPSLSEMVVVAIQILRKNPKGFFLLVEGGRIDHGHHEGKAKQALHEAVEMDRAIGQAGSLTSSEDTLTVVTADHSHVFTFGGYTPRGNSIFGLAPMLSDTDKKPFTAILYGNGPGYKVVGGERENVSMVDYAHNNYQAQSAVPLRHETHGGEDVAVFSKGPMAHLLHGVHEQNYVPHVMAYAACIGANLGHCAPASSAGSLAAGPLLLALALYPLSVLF
Kind of assay: potency against alkaline phosphatase TNAP – biochemical, luminescent, dose response, SAR follow-up (AID 1056).

In assay [2] the target is Alkaline phosphatase, placental type (Homo sapiens, UniProt P05187). As to the kind of experiment: human placental alkaline phosphatase inhibition – biochemical, luminescence, confirmation (AID 1512). Type of assay: functional.
Chain of Alkaline phosphatase, placental type (P05187 whole entry): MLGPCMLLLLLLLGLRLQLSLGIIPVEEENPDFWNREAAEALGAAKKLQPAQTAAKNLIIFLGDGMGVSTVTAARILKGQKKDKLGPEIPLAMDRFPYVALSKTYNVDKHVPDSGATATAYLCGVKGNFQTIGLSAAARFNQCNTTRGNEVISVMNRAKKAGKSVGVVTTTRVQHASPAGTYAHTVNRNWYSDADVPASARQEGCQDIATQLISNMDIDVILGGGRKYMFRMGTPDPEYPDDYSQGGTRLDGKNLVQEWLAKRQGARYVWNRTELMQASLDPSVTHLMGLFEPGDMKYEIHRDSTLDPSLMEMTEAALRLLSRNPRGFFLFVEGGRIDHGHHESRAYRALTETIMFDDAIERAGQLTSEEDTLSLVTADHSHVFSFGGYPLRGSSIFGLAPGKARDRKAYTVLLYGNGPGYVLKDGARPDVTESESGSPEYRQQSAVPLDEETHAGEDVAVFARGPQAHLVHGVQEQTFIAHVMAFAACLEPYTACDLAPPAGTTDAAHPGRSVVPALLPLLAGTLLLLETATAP

The term IC50 denotes the concentration that inhibits the measured activity by half. `CCOC(=O)NC1(C(Cl)(Cl)Cl)Oc2ccc(Cl)cc2O1` (configuration not stated): the figures for the IC50 in assay [1] and in assay [2] were > 100 µM (inactive) and 55.5 µM (active), respectively.
